For 7 compounds, IC50 results are on record in BindingDB's records for doi:10.1016/j.bioorg.2012.01.003 (Institute For Advanced Studies In Basic Sciences (Iasbs), 2012).

pIC50: −log10 of the molar value.

Chain of Acetylcholinesterase (O42275 whole entry): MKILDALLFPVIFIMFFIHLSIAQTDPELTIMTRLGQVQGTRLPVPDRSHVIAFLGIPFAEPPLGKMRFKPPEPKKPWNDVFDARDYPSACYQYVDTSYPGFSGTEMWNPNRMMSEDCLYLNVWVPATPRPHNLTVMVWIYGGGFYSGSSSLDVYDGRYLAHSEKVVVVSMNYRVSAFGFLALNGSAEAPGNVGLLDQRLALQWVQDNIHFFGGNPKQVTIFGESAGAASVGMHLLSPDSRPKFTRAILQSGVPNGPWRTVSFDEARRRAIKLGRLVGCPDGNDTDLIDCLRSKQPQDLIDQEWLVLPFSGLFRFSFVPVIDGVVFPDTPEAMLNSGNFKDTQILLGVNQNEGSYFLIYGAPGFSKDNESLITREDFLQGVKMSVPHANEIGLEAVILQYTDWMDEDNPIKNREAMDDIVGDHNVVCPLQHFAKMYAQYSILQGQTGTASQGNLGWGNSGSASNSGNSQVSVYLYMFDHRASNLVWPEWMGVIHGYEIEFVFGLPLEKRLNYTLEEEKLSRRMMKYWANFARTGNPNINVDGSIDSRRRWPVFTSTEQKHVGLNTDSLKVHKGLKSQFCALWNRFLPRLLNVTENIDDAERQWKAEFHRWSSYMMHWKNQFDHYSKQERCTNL

This test concerns the target Acetylcholinesterase (Electrophorus electricus, UniProt O42275). The test can be described thus: Inhibition Assay. Particulars: pH 8; 25 °C. As to the method:
Inhibitory activity of synthesized alpha-unreidophosphonates were determined at 25 C by the colorimetric method of Ellman et al.
`CCOP(=O)(OCC)C(c1ccc(C)cc1)N(C(=O)Nc1ccccc1)c1ccccc1` (stereo not drawn) [Alpha-ureidophosphonate, e]: the negative logarithm of the IC50 (pIC50) was 3.36. `CCOP(=O)(OCC)C(c1ccccc1)N(C(=O)Nc1ccccc1)c1ccccc1` (stereo not drawn) [Alpha-ureidophosphonate, a] had a pIC50 of 3.76. Then `CCOP(=O)(OCC)C(c1ccc(C(C)C)cc1)N(C(=O)Nc1ccccc1)c1ccccc1` (stereo not drawn) [Alpha-ureidophosphonate, b], with 3.64; and `CCOP(=O)(OCC)C(c1ccc(F)cc1)N(C(=O)Nc1ccccc1)c1ccc(OC)cc1` (stereo not drawn) [Alpha-ureidophosphonate, g], with 4.16; and `CCOP(=O)(OCC)C(c1ccc([N+](=O)[O-])cc1)N(C(=O)Nc1ccccc1)c1ccccc1` (stereo not drawn) [Alpha-ureidophosphonate, d], with 3.09. Then `CCOP(=O)(OCC)C(c1ccc(C)cc1)N(Cc1ccccc1)C(=O)Nc1ccccc1` (stereo not drawn) [Alpha-ureidophosphonate, i], with 5.65. Then `CCOP(=O)(OCC)C(c1ccc(C)cc1)N(C(=O)Nc1ccccc1)C1CCCCC1` (stereo not drawn) [Alpha-ureidophosphonate, k], with 3.83.

In general, pIC50 refers to −log10 of the IC50, conventionally taken in molar units. A higher pIC50 goes with a low IC50.
